Where two headings read alike, the source gives them in different places.

Experiment [1] deals with Beta Secretase enzyme (BACE) (Homo sapiens, UniProt P56817). The experiment can be described thus: In vitro enzymatic BACE FRET (fluorescence resonance energy transfer) assay.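 Note: fluorescence read after 1 h with 50 nM quenched peptide substrate spanning the BACE cleavage site, in pH 4.2 acetate buffer containing 10% DMSO and nonionic detergent.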 Format: biochemical.
For experiment [2], the system named is Aβ40 in conditioned medium of cells stably expressing Amyloid Precursor Protein (APP). The experiment can be described thus: In vitro BACE cell-based assay (Aβ40 in conditioned medium, sandwich ELISA).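 Note: compounds added as a dilution series, secreted peptide quantified by europium time-resolved fluorescence readout, potency fitted from percent of control versus compound concentration.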
Where [3] appears, read: BACE enzyme FRET assay, read-out: BACE1 FRET assay (IC50).
[4] abbreviates: Homo sapiens, HEK293, HEK cells, cell-based assay, read-out: HEK cell assay (IC50).
[5] abbreviates: BACE enzyme assay, read-out: BACE1 FRET assay (IC50).
The mark [6] stands for this setting: HEK cells, cell-based assay, read-out: HEK cell assay (IC50).
[7] abbreviates: Table 1, read-out: BACE1 FRET assay.
Where [8] appears, read: Homo sapiens, HEK293, Table 1, HEK cells, read-out: HEK cell assay.

Sequence of Beta Secretase enzyme (BACE) (P56817 46-501): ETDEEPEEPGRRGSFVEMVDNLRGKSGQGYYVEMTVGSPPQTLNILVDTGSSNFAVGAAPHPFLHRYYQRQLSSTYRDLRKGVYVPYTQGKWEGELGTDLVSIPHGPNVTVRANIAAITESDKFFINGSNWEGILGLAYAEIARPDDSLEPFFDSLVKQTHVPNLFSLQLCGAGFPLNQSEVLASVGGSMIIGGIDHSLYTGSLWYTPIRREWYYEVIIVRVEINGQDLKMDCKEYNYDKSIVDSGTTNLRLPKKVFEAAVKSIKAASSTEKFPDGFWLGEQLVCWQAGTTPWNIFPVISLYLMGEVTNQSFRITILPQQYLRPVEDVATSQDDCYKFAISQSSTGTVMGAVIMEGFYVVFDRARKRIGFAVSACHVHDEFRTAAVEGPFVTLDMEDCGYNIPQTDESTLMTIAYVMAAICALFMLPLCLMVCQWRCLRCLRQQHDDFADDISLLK

As for `COCC(=O)N[C@@H](Cc1ccc2c(c1)OCO2)[C@H](O)CN[C@H]1CC2(CCC2)Oc2ncc(CC(C)(C)C)cc21` [compound 282], the IC50 in experiment [1] (setting [3]) was found to be 0.00613 µM; in experiment [2] (setting [4]), 0.0168 µM.

With `CNc1nc(CC(C)(C)C)cc2c1OC1(CCC1)C[C@@H]2NC[C@@H](O)[C@H](Cc1ccc2c(c1)OCO2)NC(=O)[C@@H](C)OC` [compound 136], the IC50 is 0.0411 µM in experiment [1] (setting [5]) and 0.0163 µM in experiment [2] (setting [4]).

Turning to `CC(C)(C)Cc1cnc2c(c1)[C@@H](NC[C@@H](O)[C@H](Cc1ccc3c(c1)OCO3)NC(=O)C(Cl)Cl)CC1(CCC1)O2` [compound 100], the IC50 in experiment [1] (setting [5]) is 0.0127 µM; in experiment [2] (setting [6]) it was 0.0714 µM.

In the case of `CC(=O)N[C@@H](Cc1ccccc1)[C@H](O)CN[C@H]1CC2(CCC2)Oc2ncc(CC(C)(F)F)cc21` [compound 272], the IC50 in experiment [1] (setting [3]) was determined as 0.0151 µM; in experiment [2] (setting [4]), 0.0147 µM.

For the molecule `CO[C@H](C(=O)N[C@@H](Cc1ccc(F)cc1)[C@H](O)CN[C@H]1CC2(CCC2)Oc2ncc(CC(C)(C)C)cc21)C(F)(F)F` [compound 64], the IC50 in experiment [1] (setting [5]) came out at 0.617 µM; in experiment [2] (setting [4]) it was 0.0797 µM.

As to `CC(C)(C)Cc1cnc2c(c1)[C@@H](NC[C@@H](O)[C@H](Cc1cc(F)cc(F)c1)NC(=O)C(Cl)Cl)CC1(CCC1)O2` [compound 95], the IC50 in experiment [1] (setting [5]) is 0.00043 µM; in experiment [2] (setting [4]), 0.0167 µM.

Consider `COCC(=O)N[C@@H](Cc1cc(F)c2c(c1)OCO2)[C@H](O)CN[C@H]1CC2(CCC2)Oc2ncc(CC(C)(C)C)cc21` [compound 302], for which the IC50 in experiment [1] (setting [3]) came to 0.00573 µM; in experiment [2] (setting [4]), 0.0115 µM.

In the case of `COc1cc(C[C@H](NC(C)=O)[C@H](O)CN[C@H]2CC3(CCC3)Oc3ncc(CC(C)(C)C(F)F)cc32)ccc1Cl` [compound 216], the IC50 was 0.016 µM in experiment [1] (setting [3]) and 0.0249 µM in experiment [2] (setting [4]).

Turning to `COC(C)C(=O)NC(Cc1cc(F)cc(F)c1)C(O)CNC1CC2(CCC2)Oc2ncc(CC(C)(C)C)cc21` [compound 102, (R)—N-((2S,3R)-1-(3,5-difluorophenyl)-3-hydroxy-4-((S)-6-neopentyl-3,4-dihydrospiro[cyclobutane-1,2H-pyrano[2,3-b]pyridin-4-ylamino)butan-2-yl)-2-methoxypropanamide], the IC50 in experiment [1] (setting [5]) was determined as 0.0053 µM; in experiment [2] (setting [6]), 0.0106 µM.

On to `C=CC[C@H](NC(=O)COC)[C@H](O)CN[C@H]1CC2(CCC2)Oc2cnc(CC(C)(C)C)cc21` [compound 120], for which the IC50 in experiment [1] (setting [5]) came out at 0.745 µM; in experiment [2] (setting [4]), 0.343 µM.

Turning to `COCC(=O)N[C@@H](Cc1ccc(F)cc1)[C@H](O)CN[C@H]1CC2(CCC2)Oc2c(-c3ccncc3)cc(CC(C)(C)F)cc21` [compound 538], the IC50 turned out to be 0.047 µM in experiment [1] (BACE enzyme assay, read-out: BACE1 FRET assay) and 0.043 µM in experiment [2] (Homo sapiens, HEK293, HEK cells, read-out: HEK cell assay).

Turning to `COCC(=O)N[C@@H](Cc1ccc2c(c1)OCO2)[C@H](O)CN[C@H]1CC2(CCC2)Cc2ncc(CC(C)(C)C)cc21` [compound 168], the IC50 in experiment [1] (setting [5]) is 0.149 µM; in experiment [2] (setting [4]), 0.211 µM.

`CO[C@H](C)C(=O)N[C@@H](Cc1ccc(F)cc1)[C@H](O)CN[C@H]1CC2(CCC2)Oc2ncc(CC(C)(C)C(F)(F)F)cc21` [compound 75]: the IC50 came out at 0.00668 µM in experiment [1] (setting [5]) and 0.0199 µM in experiment [2] (setting [4]).

`COCC(=O)N[C@@H](Cc1ccccc1)[C@H](O)CN[C@H]1CC2(CCC2)Oc2ncc(CC(C)(F)F)cc21` [compound 273]: the IC50 in experiment [1] (setting [3]) worked out at 0.0149 µM; in experiment [2] (setting [4]), 0.0265 µM.

Take `CC(=O)N[C@@H](Cc1ccc(F)c(Br)c1)[C@H](O)CN[C@H]1CC2(CCC2)Oc2ncc(OC(C)(C)C)cc21` [compound 353, N-((1S,2R)-1-((3-bromo-4-fluorophenyl)methyl)-3-(((4′S)-6′-((1,1-dimethylethyl)oxy)-3′,4′-dihydrospiro[cyclobutane-1,2′-pyrano[2,3-b]pyridin]-4′-yl)amino)-2-hydroxypropyl)acetamide]: the IC50 in experiment [1] (setting [7]) was 0.12 µM; in experiment [2] (setting [8]), 0.424 µM.

As for `CC(=O)N[C@@H](Cc1ccc(F)cc1)[C@H](O)CN[C@H]1CC2(CCC2)C(F)(F)c2ncc(CC(C)(C)C)cc21` [compound 165], the values for the IC50 in experiment [1] (setting [5]) and in experiment [2] (setting [4]) were 0.107 µM and 0.109 µM, respectively.

As for `CC(=O)NC(Cc1ccc2c(c1)OCO2)C(O)CNC1CC2(CC(C)C2)Oc2ncc(CC(C)C)cc21` [compound 132, N-((1S,2R)-1-(1,3-benzodioxol-5-ylmethyl)-2-hydroxy-3-(((1s,3R,4′S)-3-methyl-6′-(2-methylpropyl)-3′,4′-dihydrospiro[cyclobutane-1,2′-pyrano[2,3-b]pyridin]-4′-yl)amino)propyl)acetamide], the IC50 in experiment [1] (setting [5]) stood at 0.0252 µM; in experiment [2] (setting [4]), 0.066 µM.

Regarding `CO[C@H](C)C(=O)N[C@@H](Cc1ccc2c(c1)OCO2)[C@H](O)CN[C@H]1CC2(CCC2)Oc2ncc(CC(C)(F)F)cc21` [compound 279], the values for the IC50 in experiment [1] (setting [3]) and in experiment [2] (setting [4]) were 0.126 µM and 0.108 µM, respectively.

In the case of `COCC(=O)N[C@@H](Cc1ccc(F)c(Br)c1)[C@H](O)CN[C@H]1CC2(CCC2)Oc2ncc(CC(C)(C)C)cc21` [compound 352], the results for the IC50 in experiment [1] (setting [7]) and in experiment [2] (setting [8]) were 0.00371 µM and 0.0176 µM, respectively.

`COCC(=O)N[C@@H](Cc1cc(Br)c2c(c1)OCO2)[C@H](O)CN[C@H]1CC2(CCC2)Oc2ncc(CC(C)(C)C)cc21` [compound 204]: the IC50 in experiment [1] (setting [3]) was 0.0956 µM; in experiment [2] (setting [4]) it was 0.0824 µM.

Turning to `COC(C)C(=O)NC(Cc1ccc2c(c1)OCO2)C(O)CNC1CC2(CC(C)C2)Oc2ncc(CC(C)C)cc21` [compound 134, (2R)—N-((1S,2R)-1-(1,3-benzodioxol-5-ylmethyl)-2-hydroxy-3-(((1s,3R,4′S)-3-methyl-6′-(2-methylpropyl)-3′,4′-dihydrospiro[cyclobutane-1,2′-pyrano[2,3-b]pyridin]-4′-yl)amino)propyl)-2-(methyloxy)propanamide], the values for the IC50 in experiment [1] (setting [5]) and in experiment [2] (setting [4]) were 0.0272 µM and 0.192 µM, respectively.

In the case of `CC(=O)N[C@@H](Cc1ccc(F)cc1)[C@H](O)CN[C@@H]1c2cc(CC(C)(C)C)cnc2OC2(CCC2)[C@H]1F` [compound 357], the IC50 was 13.3 µM in experiment [1] (setting [7]) and over 10 µM in experiment [2] (setting [8]).

As to `CO[C@H](C)C(=O)N[C@@H](Cc1ccc(F)cc1)[C@H](O)CN[C@H]1CC2(CCC2)Oc2cnc(CC(C)(C)F)cc21` [compound 256], the IC50 in experiment [1] (setting [3]) is 0.226 µM; in experiment [2] (setting [4]), 0.274 µM.

For the molecule `CC(C)(C)Cc1cnc2c(c1)[C@@H](NC[C@@H](O)[C@H](Cc1cccc(C#N)c1)NC(=O)[C@H](O)C(F)(F)F)CC1(CCC1)O2` [compound 61], the figures for the IC50 in experiment [1] (setting [5]) and in experiment [2] (setting [4]) were 0.00323 µM and 0.00965 µM, respectively.

`CO[C@H](C)C(=O)N[C@@H](Cc1cc(F)c2c(c1)OCO2)[C@H](O)CN[C@H]1CC2(CCC2)Oc2ncc(CC(C)C)cc21` [compound 343]: the IC50 in experiment [1] (setting [7]) turned out to be 0.0344 µM; in experiment [2] (setting [8]), 0.0417 µM.

`COCC(=O)N[C@@H](Cc1cccc(F)c1)[C@H](O)CN[C@H]1CC2(CCC2)Oc2c1cc(CC(C)(C)C)nc2NCC(F)(F)F` [compound 143]: the IC50 was 0.0195 µM in experiment [1] (setting [5]) and 0.314 µM in experiment [2] (setting [4]).

As to `COCC(=O)N[C@@H](Cc1cccc(F)c1)[C@H](O)CN[C@H]1CC2(CCC2)Oc2ncc(CC3(C(F)(F)F)CC3)cc21` [compound 327], the IC50 is 0.00985 µM in experiment [1] (setting [7]) and 0.0604 µM in experiment [2] (setting [8]).

Regarding `COCC(=O)N[C@@H](Cc1ccnc(C(F)(F)F)c1)[C@H](O)CN[C@H]1CC2(CCC2)Oc2ncc(CC(C)(C)C)cc21` [compound 163], the IC50 in experiment [1] (setting [5]) is 0.0269 µM; in experiment [2] (setting [4]), 0.0359 µM.

Consider `CC(=O)N[C@@H](Cc1cccc(F)c1)[C@H](O)CN[C@H]1CC2(CCC2)Oc2ncc(CC(C)(C)C(F)F)cc21` [compound 217], for which the IC50 is 0.00292 µM in experiment [1] (setting [3]) and 0.00298 µM in experiment [2] (setting [4]).

As to `COC(C)C(=O)NC(Cc1ccc(F)cc1)C(O)CNC1CC2(CCC2)Oc2ncc(CC(C)(C)C)cc21` [compound 154, (2R)—N-((1S,2R)-3-(((4′S)-6′-(2,2-dimethylpropyl)-3′,4-dihydrospiro[cyclobutane-1,2′-pyrano[2,3-b]pyridin]-4′-yl)amino)-1-((4-fluorophenyl)methyl)-2-hydroxypropyl)-2-(methyloxy)propanamide], the IC50 is 0.0132 µM in experiment [1] (setting [5]) and 0.028 µM in experiment [2] (setting [4]).

As for `CC(=O)N[C@@H](Cc1cccc(F)c1)[C@H](O)CN[C@H]1CC2(CCC2)Oc2ccc(CC(C)(C)F)cc21` [compound 201, N-((1S,2R)-3-(((4S)-6-(2-fluoro-2-methylpropyl)-3,4-dihydrospiro[chromene-2,1′-cyclobutan]-4-yl)amino)-1-((3-fluorophenyl)methyl)-2-hydroxypropyl)acetamide], the IC50 was 0.0201 µM in experiment [1] (setting [3]) and 0.0768 µM in experiment [2] (setting [4]).

As to `CC#Cc1cccc(C[C@H](NC(=O)[C@@H](C)OC)[C@H](O)CN[C@H]2CC3(CCC3)Oc3ncc(CC(C)(C)C)cc32)c1` [compound 895], the IC50 in experiment [1] (BACE enzyme assay, IC50's in uM, read-out: BACE1 FRET assay) was found to be 0.016 µM; in experiment [2] (Homo sapiens, HEK293, cell-based assay, HEK cells, IC50's in uM, read-out: HEK cell assay), 0.017 µM.

Turning to `CC(F)C(=O)N[C@@H](Cc1ccc2c(c1)OCO2)[C@H](O)CN[C@H]1CC2(CCC2)Oc2ncc(CC(C)(C)C)cc21` (stereo partly drawn) [compound 452, N-((1S,2R)-1-(1,3-benzodioxol-5-ylmethyl)-3-(((4′S)-6′-(2,2-dimethylpropyl)-3′,4′-dihydrospiro[cyclobutane-1,2′-pyrano[2,3-b]pyridin]-4′-yl)amino)-2-hydroxypropyl)-2-fluoropropanamide], the IC50 is 0.016 µM in experiment [1] (Table 2, read-out: BACE1 FRET assay) and 0.039 µM in experiment [2] (Homo sapiens, HEK293, Table 2, HEK cells, read-out: HEK cell assay).

For `CC(=O)N[C@@H](Cc1ccc2c(c1)OCCO2)[C@H](O)CN[C@H]1CC2(CCC2)Oc2ncc(CC(C)(C)C)cc21` [compound 205], the IC50 in experiment [1] (setting [3]) and in experiment [2] (setting [4]) was 0.0229 µM each time.

Take `COCC(=O)N[C@@H](Cc1cccc(F)c1)[C@H](O)CN[C@H]1CC2(CCC2)Oc2ncc(CC(C)(C)C(F)(F)F)cc21` [compound 73]: the IC50 in experiment [1] (setting [5]) is 0.016 µM; in experiment [2] (setting [4]) it was 0.0531 µM.
